This is an account of results in patent US5985837A, “Dolastatin 15 derivatives” (BASF Aktiengesellschaft, priority 1998, dated 1999).

One data set deals with tumor cells such as the HT-29 colon carcinoma or LX-1 lung tumor. The experiment in a line: Cytotoxicity, microculture tetrazolium assay (MTT). Type of data set: cell-based. The settings on record: 48 hours incubation, concentration giving T/C of 50% growth inhibition, cell line not given. The procedure:
Cytotoxicity was measured using a standard methodology for adherent cell lines, such as the microculture tetrazolium assay (MTT). Details of this assay have been published (Alley, M. C. et al., Cancer Research 48:589-601, 1988). Exponentially growing cultures of tumor cells such as the HT-29 colon carcinoma or LX-1 lung tumor were used to make microtiter plate cultures. Cells were seeded at 5000-20,000 cells per well in 96-well plates (in […] of media), and grown overnight at 37° C. Test compounds were added, in 10-fold dilutions varying from 10^-4 M to 10^-10 M. Cells were then incubated for 48 hours. To determine the number of viable cells in each well, the MTT dye was added ([…] of a 3 mg/mL solution of 3-(4,5-dimethylthiazol-2-yl)-2,5-diphenyltetrazolium bromide in saline). This mixture was incubated at 37° C. for 5 hours, and then […] of 25% SDS, pH 2, was added to each well. After an overnight incubation, the absorbance of each well at 550 nm was read using an ELISA reader. The values for the mean ±SD of data from replicated wells were calculated, using the formula % T/C (% viable cells treated/control). The concentration of test compound which gives a T/C of 50% growth inhibition was designated as the IC50.
In turn, “2-(Me2 Val-Val-MeVal-Pro-NH)--C6 H4 --CO--CH3 [IV-1]” registered an IC50 of more than 1000 nM. On the same count and under the same terms, as for `CNC(=O)c1ccccc1NC(=O)[C@@H]1CCCN1C(=O)[C@H](C(C)C)N(C)C(=O)[C@@H](NC(=O)[C@H](C(C)C)N(C)C)C(C)C` [Compound I-1, 2-(Me2 Val-Val-MeVal-Pro-NH)--C6 H4 C(O)NHCH3], the figure is 400 nM; as for `CC(C)[C@H](NC(=O)[C@H](C(C)C)N(C)C)C(=O)N(C)[C@H](C(=O)N1CCC[C@H]1C(=O)Nc1ccccc1C(=O)NCc1ccccc1)C(C)C` [Compound I-2, 2-(Me2 Val-Val-MeVal-Pro-NH)--C6 H4 C(O)NHCH2 C6 H5], more than 1000 nM. `CC(C)NC(=O)c1ccccc1NC(=O)[C@@H]1CCCN1C(=O)[C@H](C(C)C)N(C)C(=O)[C@@H](NC(=O)[C@H](C(C)C)N(C)C)C(C)C` [Compound I-3, 2-(Me2 Val-Val-MeVal-Pro-NH)--C6 H4 C(O)NHCH(CH3)2] displayed an IC50 of 500 nM. On the same count and under the same terms, as for `CC(C)[C@H](NC(=O)[C@H](C(C)C)N(C)C)C(=O)N(C)[C@H](C(=O)N1CCC[C@H]1C(=O)Nc1ccccc1C(=O)Nc1ccccc1)C(C)C` [Compound I-4, 2-(Me2 Val-Val-MeVal-Pro-NH)--C6 H4 C(O)NHC6 H5], the figure is 400 nM; as for `CC(C)[C@H](NC(=O)[C@H](C(C)C)N(C)C)C(=O)N(C)[C@H](C(=O)N1CCC[C@H]1C(=O)Nc1ccccc1C(=O)Nc1nccs1)C(C)C` [Compound I-5, 2-(Me2 Val-Val-MeVal-Pro-NH)--C6 H4 C(O)NH(thiazol-2-yl)], 150 nM.

Regarding `CNC(=O)c1cc(OC)c(OC)cc1NC(=O)[C@@H]1CCCN1C(=O)[C@H](C(C)C)N(C)C(=O)[C@@H](NC(=O)[C@H](C(C)C)N(C)C)C(C)C` [Compound I-6, 2-(Me2 Val-Val-MeVal-ProNH)-4,5-bis(methoxy)C6 H2 C(O)NHCH3], the IC50 was 200 nM. The compound `CON(C)C(=O)c1ccccc1NC(=O)[C@@H]1CCCN1C(=O)[C@H](C(C)C)N(C)C(=O)[C@@H](NC(=O)[C@H](C(C)C)N(C)C)C(C)C` [Compound I-60, (2)-(Me2 Val-Val-MeVal-Pro-NH)-C6 H4 -CON(CH3) (OCH3)] returned an IC50 of 400 nM. Take `CC(C)[C@H](NC(=O)[C@H](C(C)C)N(C)C)C(=O)N(C)[C@H](C(=O)N1CCC[C@H]1C(=O)Nc1ccccc1C(=O)N1CCC(c2ccccc2)O1)C(C)C` (stereo partly drawn) [Compound I-64, 2-(Me2 Val-Val-MeVal-Pro-NH)--C6 H4 --CO--N(--(CH2)2 --CH(C6 H5)O--)]: half-maximal inhibition (IC50) required 250 nM. Still for that read-out and setting: with `CC(C)[C@H](NC(=O)[C@H](C(C)C)N(C)C)C(=O)N(C)[C@H](C(=O)N1CCC[C@H]1C(=O)Nc1ccccc1C(=O)NCCCO)C(C)C` [Compound I-86, 2-(Me2 Val-Val-MeVal-Pro-NH)--C6 H4 --CO--NH(--(CH2)3 --OH)] the figure was 600 nM; with `CC(C)[C@H](NC(=O)[C@H](C(C)C)N(C)C)C(=O)N(C)[C@H](C(=O)N1CCC[C@H]1C(=O)Nc1ccccc1C(=O)NCCC(O)c1ccccc1)C(C)C` (stereo partly drawn) [Compound I-87, 2-(Me2 Val-Val-MeVal-Pro-NH)--C6 H4 C(O)NH((CH2)2 CH(C6 H5)OH)], 200 nM; with `CNC(=O)c1cccc(NC(=O)[C@@H]2CCCN2C(=O)[C@H](C(C)C)N(C)C(=O)[C@@H](NC(=O)[C@H](C(C)C)N(C)C)C(C)C)c1` [II-1, 3-(Me2 Val-Val-MeVal-Pro-NH)--C6 H4 --CO--NHCH3], more than 1000 nM. On to `CC(C)[C@H](NC(=O)[C@H](C(C)C)N(C)C)C(=O)N(C)[C@H](C(=O)N1CCC[C@H]1C(=O)Nc1cccc(C(=O)NCc2ccccc2)c1)C(C)C` [II-2, 3-(Me2 Val-Val-MeVal-Pro-NH)--C6 H4 --CO--NH CH2 C6 H5], for which the IC50 was more than 1000 nM.

For `CC(C)[C@H](NC(=O)[C@H](C(C)C)N(C)C)C(=O)N(C)[C@H](C(=O)N1CCC[C@H]1C(=O)Nc1ccccc1C(=O)c1ccccc1)C(C)C` [IV-15, 2-(Me2 Val-Val-MeVal-Pro-NH)--C6 H4 --CO--C6 H5], the IC50 was found to be 70 nM.

Another data set relates to National Cancer Institute's P388 lymphocytic leukemia (PS system) cell line.
Experiment: not given
The settings on record: background statement; cited from earlier work.
Consider Dolastatin 15, for which the “inhibition of cell growth” value is “markedly inhibits the growth”.

Test system in the next data set: not given
Experiment: not given
The note with it: background statement on Dolastatin 15; cited from earlier work.
In the case of Dolastatin 15, the “solubility in aqueous systems” value is recorded as “poor solubility in aqueous systems”.
